What was measured:
[1] = uptake of radiolabeled sulfatide analogues in liver after intraperitoneal injection; format: in vivo; details: 150 nmol i.p., ob/ob mice, FIG. 6A; for degradation or accumulation in liver, 6 h vs 24 h: 6 h and 24 h after i.p.; for uptake in liver: tritium-labeled, scintillation counting
Description: (§1) Native sulfatide isolated from pig brain and structurally characterized by mass spectrometry was modified with regard to the fatty acid composition and tritiated in the sphingosine base. These analogues were administrated intraperitoneally to diabetic ob/ob mice and their uptake in liver and pancreas analyzed after lipid extraction of dissected organs. The aim was to explore whether the exogenously administrated sulfatide was taken up by pancreas and thereby open a possibility to substitute for the quantitative and qualitative alterations of sulfatide seen in the diabetes type 2 models.
(§2) Sulfatide was tritium labeled in the ceramide portion by catalytic hydrogenation with Pd(OAc)2/NaB^3H4. The labeled sulfatide was mixed with unlabelled sulfatide to the required specific activity.
(§3) The fatty acid was removed from native pig brain sulfatide by weak alkaline methanolysis at 80° C. The formed lysosulfatide was, after chromatographic purification, reacylated with respective fatty acid chloride in aqueous sodium acetate-tetrahydrofuran.
(§4) These mice were 12 weeks old and the mean value of the highest blood glucose was […]. At sacrifice the mice were anaesthetized with CO2 and killed by dislocation of the neck vertebrae. This is outlined in Table 2. The liver and pancreas were dissected immediately. The organ were quick-frozen and thawed at analyses (within 4 days).
(§5) The organs were homogenized and the lipids extracted with chloroform/methanol/water. The lipid extracts were evaporated, re-dissolved in chloroform/methanol/water and separated by silica gel chromatography to remove other lipids. The sulfatide containing fraction was used for counting by scintillation.
(§6) The results of the scintillation measurement are presented in FIG. 6A and FIG. 6B—FIG. 6A presenting liver data and FIG. 6B pancreas data—as cpm uptake in total, cpm/mg wet weight of tissue, cpm/mg of tissue protein and % of given cpm residing in the organ

[2] = uptake of radiolabeled sulfatide analogues in pancreas after intraperitoneal injection; format: in vivo; details: 150 nmol i.p., ob/ob mice, FIG. 6B; for degradation or accumulation in pancreas, 6 h vs 24 h: 6 h and 24 h after i.p.; for uptake in pancreas: tritium-labeled, scintillation counting
Description: as §1, §2, §3, §4, §5, §6

insulin crystals = assay: in vitro preservation of insulin crystals stored with sulfatide isoforms; details: compared to C24:0 analogue, native pig brain sulfatide and insulin stored without sulfatide, FIG. 5
Description: The preservation of insulin crystals, a requirement for storage of an insulin pool that can be released upon raised blood glucose, is increased for sulfatide C16:0 compared to other sulfatide isoforms. […] This is illustrated in FIG. 5.

[3] = further uptake study of sulfatide analogues in pancreas (Example 3); format: in vivo; details: i.p., ob/ob mice; FIGS. 7-10
Method: These experiments were performed as in Example 3, but only the uptake in pancreas was studies.
ob/ob mice was thus given C12, C14, C16 och C18 analogues of sulfatide intraperitoneally in the way described above.
The results are illustrated in FIGS. 7-10.

[4] = system: T-cell response to insulin; assay: T-cell response to insulin; format: cell-based; details: sulfatide in combination with insulin
Description: The fact that sulfatide is processed through the same intracellular route as insulin further supports the findings according to the invention. Sulfatide is involved in normal processing of insulin, from proinsulin to secreted monomeric insulin. It is involved in the folding and oxidation of proinsulin, and is thus required for insulin formation, it is involved in the preservation of insulin crystals in secretory granules, and is thus required for the storage of the insulin pool, prevents deterioration and fibril formation, and it is involved in the transformation of insulin from hexamer via dimer to monomer form at secretion, and this last conversion to monomer is required for biological activity. Furthermore, sulfatide might be needed in combination with insulin in order to affect the insulin receptors in a proper way and to avoid development of insulin resistance.

[5] = listed as C16:0 sulfatide analogue

Compound	degradation or accumulation in liver, 6 h vs 24 h [1]	uptake in liver [1]	degradation or accumulation in pancreas, 6 h vs 24 h [2]	degradation or accumulation in pancreas, 6 h vs 24 h ([2]; listed as C24)	uptake in pancreas [2]	uptake in liver ([1]; listed as C8:0)	degradation or accumulation in pancreas, 6 h vs 24 h ([2]; listed as C8:0)	preservation of insulin crystals (insulin crystals)	preservation of insulin crystals (insulin crystals; listed as isoform of sulfatide with 16 carbon atoms in the fatty acid)	degradation or accumulation in pancreas, 6 h vs 24 h ([2]; listed as C 16)	degradation or accumulation in pancreas, 6 h vs 24 h [2, 5]	uptake in pancreas ([2]; listed as C16)	uptake in pancreas [2, 5]	uptake in pancreas (Example 3) [3]	T-cell response to insulin [4]
CCCCCCCCCCCCC/C=C/[C@@H](O)[C@H](CO[C@@H]1O[C@H](CO)[C@H](O)[C@H](OS(=O)(=O)O)[C@H]1O)NC(=O)CCCCCCCCCCCCCCCCCCCCCCC [C24:0 analogue]	slight reduction	lower uptake in liver as compared to the C8:0 analogue	slight reduction	slight degradation	efficiently taken up in pancreas	–	–	–	–	–	–	–	–	–	–
CCCCCCCCCCCCC/C=C/[C@@H](O)[C@H](CO[C@@H]1O[C@H](CO)[C@H](O)[C@H](OS(=O)(=O)O)[C@H]1O)NC(=O)CCCCCCC [C8:0 analogue]	rapidly degraded	preferentially taken up in liver	neither accumulation or degradation was noticed	–	much lower than for the other two analogues	rapidly removed from circulation to the liver and degraded	no accumulation	–	–	–	–	–	–	–	–
CCCCCCCCCCCCC/C=C/[C@@H](O)[C@H](CO[C@@H]1O[C@H](CO)[C@H](O)[C@H](OS(=O)(=O)O)[C@H]1O)NC(=O)CCCCCCCCCCCCCCC [C16:0 analogue]	slight accumulation	higher than for the C24:0	–	–	–	–	–	significant effect on the preservation	significant effect on the preservation of insulin crystals	accumulation	accumulation after 24 hours	efficiently taken up in pancreas	most efficiently taken up	most interesting results	–
galactosylceramide-3-O-sulfate [sulfatide]	–	–	–	–	–	–	–	–	–	–	–	–	–	–	inhibited the T-cell response to insulin

Source: patent publication US6908904B2, “Pharmaceutical preparation and method for treatment of diabetes” (priority 2000, dated 2005)
